Our source for the MIC50 and Virus rating values is ChEMBL document CHEMBL1124036 (J Med Chem, 1988).

SMILES strings stand for the structures.

The subject of the first experiment is Vaccinia virus. The experiment in a line: The minimum inhibitory concentration required for 50% inhibition of vaccinia virus induced cytopathogenic effect in L929 cells; G indicates CPE reduction <50%. Type of experiment: functional, organism-based. The conditions noted are these: Orthopoxvirus vaccinia.
On to `Nc1nc(Cl)nc2c1ncn2C1O[C@H](CO)[C@H](O)[C@H]1N` (some centres undefined), for which the MIC50 entry is “CPE reduction <50%”.

A further experiment relates to Vaccinia virus. The experiment in a line: Virus rating on vaccinia virus measured as the degree of inhibition of virus induced cytopathogenic effect in L929 cells. Type of experiment: functional, Orthopoxvirus vaccinia.
Details: not given
(In general: Protection from cytopathic effect is a common read-out in antiviral testing.)
`Nc1nc(F)nc2c1ncn2C1O[C@H](CO)[C@H](O)[C@H]1N` (some centres undefined) had a Virus rating of 0.7.

`Nc1nc(Cl)nc2c1ncn2C1O[C@H](CO)[C@H](O)[C@H]1I` (some centres undefined) returned a Virus rating of 0.

`Nc1nc(F)nc2c1ncn2C1O[C@H](CO)[C@H](O)[C@H]1Cl` (some centres undefined) yielded a Virus rating of 0.6.

With `Nc1nc(Cl)nc2c1ncn2C1O[C@H](CO)[C@H](O)[C@H]1Br` (some centres undefined), the Virus rating is reported as 0.4.

For the compound `Nc1nc(Cl)nc2c1ncn2C1O[C@H](CO)[C@H](O)[C@H]1Cl` (some centres undefined), the Virus rating is recorded as 0.7.

In turn, `[N-]=[N+]=N[C@H]1C(n2cnc3c(N)nc(Cl)nc32)O[C@H](CO)[C@@H]1O` (some centres undefined) came in with a Virus rating of 0.8.

On to `Nc1nc(Cl)nc2c1ncn2C1O[C@H](CO)[C@H](O)[C@H]1N` (some centres undefined), for which the Virus rating came out at 0.6.

Compound `[N-]=[N+]=N[C@H]1C(n2cnc3c(N)nc(F)nc32)O[C@H](CO)[C@@H]1O` (some centres undefined) registered a Virus rating of 2.4.
